Results reported in patent US20070135438A1, “INHIBITORS OF HISTONE DEACETYLASE FOR THE TREATMENT OF DISEASE” (KALYPSYS, INC., priority 2005, published 2007).

How the values were obtained:
[1] = tested on: HDAC; assay: In vitro HDAC-inhibition assay (Fluor de Lys fluorescent substrate); format: biochemical; conditions: HDAC enzyme source
Experimental: 1) In Vitro HDAC-Inhibition Assay:
This assay measures a compound's ability to inhibit acetyl-lysine deacetylation in vitro and was used as both a primary screening method as well as for IC50 determinations of confirmed inhibitors. The assay is performed in vitro using an HDAC enzyme source (e.g. partially purified nuclear extract or immunopurified HDAC complexes) and a proprietary fluorescent substrate/developer system (HDAC Quantizyme Fluor de Lys Fluorescent Activity Assay, BIOMOL). The assay is run in 1,536-well Greiner white-bottom plates using the following volumes and order of addition:
Step 1: Enzyme (2.5 μL) source added to plate (from refrigerated container)
Step 2: Compounds (50 nL) added with pin transfer device
Step 3: Fluor de Lys (2.5 μL) substrate added, incubate at RT, 30 minutes
Step 4: Developer (5 μL) solution is added (containing TSA), to stop reaction
Step 5: Plate Reader—data collection
The deacetylated fluorophore is excited with 360 nm light and the emitted light (460 nm) is detected on an automated fluorometric plate reader (Aquest, Molecular Devices).

[2] = tested on: HDAC in cells; assay: Cellular HDAC inhibition (cellular histone hyperacetylation assays); format: cell-based; conditions: cellular assay, cell line not stated
Experimental: 2) Cellular Histone Hyperacetylation Assays:
These two secondary assays evaluates a compound's ability to inhibit HDAC in cells by measuring cellular histone acetylation levels. The cytoblot facilitates quantitative EC50 information for cellular HDAC inhibition. Transformed cell lines (e.g. HeLa, A549, MCF-7) are cultured under standard media and culture conditions prior to plating.
Cells (approx. 2,500/well) are allowed to adhere 10-24 hours to wells of a 384-well Greiner PS assay plate in media containing 1-5% serum. Cells are treated with appropriate compound and specific concentrations for 0 to 24 hours. Cells are washed once with PBS (60 μL) and then fixed (95% ethanol, 5% acetic acid or 2% PFA) for 1 minute at RT (30 μL). Cells are blocked with 1% BSA for 1 hour and washed and stained with antibody (e.g. anti-Acetylated Histone H3, Upstate Biotechnology), followed by washing and incubation with an appropriate secondary antibody conjugated to HRP or fluorophore. For luminescence assays, signal is generated using Luminol substrate (Santa Cruz Biotechnology) and detected using an Aquest plate reader (Molecular Devices).
Cells (4×10^5/well) are plated into Corning 6-well dish and allowed to adhere overnight. Cells are treated with compound at appropriate concentration for 12-18 hours at 37° C. Cells are washed with PBS on ice. Cells are dislodged with rubber policeman and lysed in buffer containing 25 mM Tris, pH7.6; 150 mM NaCl, 25 mM MgCl2, 1% Tween-20, and nuclei collected by centrifugation (7500 g). Nuclei are washed once in 25 mM Tris, pH7.6; 10 mM EDTA, collected by centrifugation (7500 g). Supernatant is removed and histones are extracted using 0.4 M HCl. Samples are centrifuged at 14000 g and supernatants are precipitated in 1 ml cold acetone. The histone pellet is dissolved in water and histones are separated and analyzed by SDS-PAGE Coomassie and immunoblotting (anti-acetylated histone antibodies, Upstate Biotechnology) using standard techniques.

SMILES	IC50 [1] [nM]	IC50 [2] [nM]
CC(=O)SCC(=O)c1ccc(NS(=O)(=O)c2ccc(OCCCN(C)C)cc2)nc1 [Example 1, Thioacetic acid S-(2-{6-[4-(3-dimethylamino-propoxy)-benzenesulfonylamino]-pyridin-3-yl}-2-oxo-ethyl)ester]	< 1000	< 1000
CC(=O)SCC(=O)c1ccc(NS(=O)(=O)c2ccc(OCCN(C)C)cc2)nc1 [Example 2, Thioacetic acid S-(2-{6-[4-(2-dimethylamino-ethoxy)-benzenesulfonylamino]-pyridin-3-yl}-2-oxo-ethyl) ester]	< 1000	< 1000
CC(=O)SCC(=O)c1ccc(NS(=O)(=O)c2ccc(OCC(C)(C)CN(C)C)cc2)nc1 [Example 3, Thioacetic acid S-(2-{6-[4-(3-dimethylamino-2,2-dimethyl-propoxy)-benzenesulfonylamino]-pyridin-3-yl}-2-oxo-ethyl) ester]		< 1000
CC(=O)SCC(=O)c1ccc(NS(=O)(=O)c2ccc(OCCCCN(C)C)cc2)nc1 [Example 4, Thioacetic acid S-(2-{6-[4-(4-dimethylamino-butoxy)-benzenesulfonylamino]-pyridin-3-yl}-2-oxo-ethyl) ester]	< 1000	< 1000
